Measured values as given in PubChem BioAssay AID1963984 (Molecular Pharmacology Branch, DTP, NCI, 2024).

Tested on: 233499-124-R-J3-PDC spheroids with HUVEC/MSC, viability
Experiment: Anticancer human tumor 233499-124-R-J3-PDC patient-derived colon adenocarcinoma cell line growth inhibition [PI3K]
Settings: for IC50: curve of first compound; for viability, T/C: stronger effect = lower value; active = viability on the fitted dose curve at most 10% of control; inactive = the rest
Summary of the method: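 We assembled tumor spheroids that included a stromal compartment of HUVEC and MSCs, then exposed them to targeted agents alone and together with PI3K pathway inhibitors. Concentration series descended by half-log from clinically achievable Cmax levels. Viability served as the endpoint.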

[1] = second compound 0.0316 µM, first compound 0.0316 µM
[2] = second compound 0.0316 µM, first compound 0.1 µM
[3] = second compound 0.0316 µM, first compound 0.316 µM
[4] = second compound 0.0316 µM, first compound 1 µM
[5] = second compound 0.0316 µM, first compound 3.16 µM
[6] = second compound 0.0316 µM, first compound 10 µM
[7] = second compound 0.1 µM, first compound 0.0316 µM
[8] = second compound 0.1 µM, first compound 0.1 µM
[9] = second compound 0.1 µM, first compound 0.316 µM
[10] = second compound 0.1 µM, first compound 1 µM
[11] = second compound 0.1 µM, first compound 3.16 µM
[12] = second compound 0.1 µM, first compound 10 µM
[13] = second compound 0.316 µM, first compound 0.0316 µM
[14] = second compound 0.316 µM, first compound 0.1 µM
[15] = second compound 0.316 µM, first compound 0.316 µM
[16] = second compound 0.316 µM, first compound 1 µM
[17] = second compound 0.316 µM, first compound 3.16 µM
[18] = second compound 0.316 µM, first compound 10 µM
[19] = second compound 1 µM, first compound 0.0316 µM
[20] = second compound 1 µM, first compound 0.1 µM
[21] = second compound 1 µM, first compound 0.316 µM
[22] = second compound 1 µM, first compound 1 µM
[23] = second compound 1 µM, first compound 3.16 µM
[24] = second compound 1 µM, first compound 10 µM
[25] = second compound 3.16 µM, first compound 0.0316 µM
[26] = second compound 3.16 µM, first compound 0.1 µM
[27] = second compound 3.16 µM, first compound 0.316 µM
[28] = second compound 3.16 µM, first compound 1 µM
[29] = second compound 3.16 µM, first compound 3.16 µM
[30] = second compound 3.16 µM, first compound 10 µM
[31] = second compound 10 µM, first compound 0.0316 µM
[32] = second compound 10 µM, first compound 0.1 µM
[33] = second compound 10 µM, first compound 0.316 µM
[34] = second compound 10 µM, first compound 1 µM
[35] = second compound 10 µM, first compound 3.16 µM
[36] = second compound 10 µM, first compound 10 µM
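Also: spheroids exposed to agents for seven days before readout.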
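For viability, T/C in this document: percent viability relative to DMSO vehicle control taken as 100%.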

C=CC(=O)N1CCN(c2nc(=O)n(-c3c(C)ccnc3C(C)C)c3nc(-c4c(O)cccc4F)c(F)cc23)C(C)C1 (centres undefined) + CC(Nc1ncnc2nc[nH]c12)c1cc2cccc(Cl)c2c(=O)n1-c1ccccc1
inactive: viability, T/C [1] 103% | viability, T/C [2] 89.2% | viability, T/C [3] 81.2% | viability, T/C [4] 84.3% | viability, T/C [5] 85.8% | viability, T/C [6] 91.8% | viability, T/C [7] 91% | viability, T/C [8] 87.4% | viability, T/C [9] 92% | viability, T/C [10] 79.8% | viability, T/C [11] 88.1% | viability, T/C [12] 96.8% | viability, T/C [13] 81.1% | viability, T/C [14] 86.4% | viability, T/C [15] 87.4% | viability, T/C [16] 88.8% | viability, T/C [17] 90% | viability, T/C [18] 82.3% | viability, T/C [19] 96.6% | viability, T/C [20] 89.4% | viability, T/C [21] 87.8% | viability, T/C [22] 88.4% | viability, T/C [23] 92.9% | viability, T/C [24] 93.3% | viability, T/C [25] 91.3% | viability, T/C [26] 90.9% | viability, T/C [27] 78.3% | viability, T/C [28] 79.7% | viability, T/C [29] 71.6% | viability, T/C [30] 89% | viability, T/C [31] 80.9% | viability, T/C [32] 82.5% | viability, T/C [33] 81.8% | viability, T/C [34] 97.3% | viability, T/C [35] 69.4% | viability, T/C [36] 88.3%
> 10 µM: IC50 (second compound 0.0316 µM) | IC50 (second compound 0.1 µM) | IC50 (second compound 0.316 µM) | IC50 (second compound 1 µM) | IC50 (second compound 3.16 µM) | IC50 (second compound 10 µM)

CC(Cn1ccc(-c2ccc(C#N)c(Cl)c2)n1)NC(=O)c1cc(C(C)O)[nH]n1 (centres undefined) + CC(Nc1ncnc2nc[nH]c12)c1cc2cccc(Cl)c2c(=O)n1-c1ccccc1
> 10 µM: IC50 (second compound 0.0316 µM) | IC50 (second compound 0.1 µM) | IC50 (second compound 0.316 µM) | IC50 (second compound 1 µM) | IC50 (second compound 3.16 µM) | IC50 (second compound 10 µM)
inactive: viability, T/C [1] 100% | viability, T/C [2] 84.7% | viability, T/C [3] 93.2% | viability, T/C [4] 91.9% | viability, T/C [5] 109% | viability, T/C [6] 75% | viability, T/C [7] 98.2% | viability, T/C [8] 91.6% | viability, T/C [9] 81.5% | viability, T/C [10] 94.6% | viability, T/C [11] 68.8% | viability, T/C [12] 92.2% | viability, T/C [13] 87.3% | viability, T/C [14] 101% | viability, T/C [15] 73.3% | viability, T/C [16] 99.6% | viability, T/C [17] 100% | viability, T/C [18] 101% | viability, T/C [19] 96.2% | viability, T/C [20] 95.8% | viability, T/C [21] 81.4% | viability, T/C [22] 110% | viability, T/C [23] 92.9% | viability, T/C [24] 90.6% | viability, T/C [25] 91.6% | viability, T/C [26] 96.5% | viability, T/C [27] 78.1% | viability, T/C [28] 88.7% | viability, T/C [29] 78.3% | viability, T/C [30] 86.5% | viability, T/C [31] 86.1% | viability, T/C [32] 96.3% | viability, T/C [33] 83.2% | viability, T/C [34] 102% | viability, T/C [35] 75.5% | viability, T/C [36] 93.3%
